# Data from patent US20070093539A1, “N-hydroxy-4-(3-pheyl-5-methyl-isoxazole-4-yl)-benzenesulfonate solvates” (priority 2003, published 2007).
# Experiments:
# [1] = system: isolated rabbit heart; assay: Cardiac effects on the isolated rabbit heart (Langendorff, coronary flow); design: species or system New Zealand white rabbits; coronary flow: unit not given here; conditions: for coronary flow % changing: versus basic value
# Method: New Zealand white rabbits weighing 1.5-2 kg were used. The animals were exsanguinated and after thoracotomy the hearts were excised and mounted on a Langendorff-type perfusion apparatus. The hearts were perfused via the aorta with oxigenated, thermostated (37° C.) Krebs solution. A constant perfusion pressure of 80 cmH2O was applied. The test compounds were dissolved in the perfusion solution to obtain the requested concentrations.
# The basic value of coronary flow was determined. Afterwards the small amount of compounds were added to perfusion liquid and the perfusion was measured for 30 minutes at every 10 minutes. Afterwards 30 minutes perfusion was performed without compound and the measure was repeated with the medium and high amount of compounds.
# The effects of same concentration of valdecoxib and compound of example 1 were investigated in 4-4 hearts (1, 3 and 10 μM). Valdecoxib had no effect in either concentration. It can clearly be shown that the coronary flow was increased dose dependently. This effect is advantageous in practice of clinical therapy, because the painful arthritic and degenerative joint and bone deformations are emerged rather in old age, when diseases of the vascular system are also frequently encountered, which can conduce to disorder of vascular bed of the heart.
# [2] = system: carrageenan induced inflammatory hyperalgesia; assay: Carrageenan induced inflammatory hyperalgesia (Randall-Selitto), chronic model; format: in vivo, male SPRD rats; conditions: 30 mg/kg p.o.
# Method: Edema was induced by injection of Carrageenan (CA) into plantar surface of right hind paw. Male SPRD rats (weighing 140-190 g) were used n=6-8/group). Then the mechanical pain threshold of the inflamed hind paw was determined with an analgesimeter ((Ugo Basile, type: 37215).
# This assay monitors the decrease of the pain threshold, and the time depending changing of the pain by mechanical pain stimulus. Analgesics can increase the pain threshold of the inflamed hinds and this effect is in terms of percentage of reversal.
# Untreated right hind paw was compressed with a progressively increasing pressure. The pressure was recorded (in grams) when the animal first vocalized or made a vigorous attempt to remove the paw. It was determined to baseline threshold of the untreated paw. (average: 80-110 g). After it the animals were treated with carrageenan. After the treatment the edema and the threshold were checked in a given times. […] (Average of inflammation induced pain threshold was 20-25 g, this means 65-80% decrease related to the baseline.)
# The chronic phase of the inflammantion and the decreasing of the threshold were induced by higher dose of CA. Inflammation induced threshold decreasing was measured 24 hours after the CA injection (150 μl of 2% solution). ) After it the animals were treated with test compounds and valdecoxib (30-30 mg/kg p.o.). Change in the threshold was checked at 1 h, 2 h, and 3 h following drug administration. In both model used control groups were treated orally only with solvents at the time of treatments. In both protocol the effects of the test compounds were calculated in percentage reversal of mechanical hiperalgesia: [formula] • T3h: In acute model, the threshold in the control group at 3 h after the CA injection (in gram) • T24h: In chronic model, the threshold in the control group at 24 h after the CA injection (in gram) • T0h: The threshold before the CA injection (in gram) • TXh In acute model, at 3h after the CA injection • TXh=In chronic model, at 25 h, 26 h, 27 h after the CA injection
# [3] = molecular target: T1, sheep COX-1 (Ovis aries, UniProt P05979); assay: spectrophotometric TMPD assay, COX-1; format: biochemical; conditions: 15 min preincubation at 25° C., read-out: Sheep COX-1 IC50 (μM) ± S.E.M.
# T1 construct: purchased Cayman Chemical, Ann Arbor, USA 60100
# T1 sequence (P05979 25-600): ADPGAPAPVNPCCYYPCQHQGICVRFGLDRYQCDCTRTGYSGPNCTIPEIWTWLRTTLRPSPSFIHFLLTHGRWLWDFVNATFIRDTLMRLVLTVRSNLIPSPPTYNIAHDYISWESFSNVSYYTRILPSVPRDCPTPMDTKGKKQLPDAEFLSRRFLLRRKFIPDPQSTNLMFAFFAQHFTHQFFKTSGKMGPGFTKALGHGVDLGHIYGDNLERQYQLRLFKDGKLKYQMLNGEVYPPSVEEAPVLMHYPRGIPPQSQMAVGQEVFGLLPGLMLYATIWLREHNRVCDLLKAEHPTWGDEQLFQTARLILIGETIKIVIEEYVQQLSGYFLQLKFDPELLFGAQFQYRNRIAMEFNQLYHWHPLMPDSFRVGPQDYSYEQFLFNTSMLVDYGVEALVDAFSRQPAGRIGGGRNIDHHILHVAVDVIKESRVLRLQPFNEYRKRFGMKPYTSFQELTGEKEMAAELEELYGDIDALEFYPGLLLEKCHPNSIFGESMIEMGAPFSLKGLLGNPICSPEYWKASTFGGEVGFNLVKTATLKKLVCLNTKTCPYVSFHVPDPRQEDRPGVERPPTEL
# Method: The Human recombinant COX-2 and sheep COX-1 activity were determined by spectrophotometric TMPD assay (K. Gierse, S. D. Hauser, D. P. Creely, C. M. Koboldt, S. H. Rangwala, P. C. Isakson and K. Seibert: Expression and selective inhibition of the constitutive and inducible forms of human cyclo-oxygenase Biochem. J. 305: 479-484 (1995)).
# The Human recombinant COX-2 and sheep COX-1 activity were measured by spectrophotometric assay based on oxidation of N,N,N′,N′,-tetramethyl-p-phenylenediamine (TMPD). During the reduction of the prostaglandine G2 (PGG2) to prostaglandine endoperoxid H2 (PGH2), the TMPD is being oxidated to a colour product, which can be measured by spectrophotometer at 610 nm.
# 4 μl of solution of inhibitors in different concentrations was added to the 156 μl of reaction mixture (100 mM sodium phosphate buffer, pH:6.5, 1 μM hematin, 1 mg/ml gelatine). Afterwards 20 μl solution of 50 unit human recombinant COX-2 enzym or 20 μl of 50 unit sheep COX-1 enzym (Cayman Chemical, Ann Arbor, USA, cat no.: 60122/COX-2/, cat. no.: 60100/COX-1/) was added. The incubation mixture: was preincubated for 15 minutes at 25° C. in a spectrophotometric 96-well plate reader (Labsystem iEMS Reader MF). Following this, the mixture of 20 μl 1 mM arachidonic acid and 1 mM TMPD solution were added. It was shaken for 10 second and the absorbance was measured at 610 nm.
substance,measurement,setting,value
N-hydroxi-4-(3-phenyl-5-methyl-isoxazole-4-yl)-benzenesulfonamide monohydrate [example 1],coronary flow,"[1]; 1 μM, 10 minutes of treatment",40.0 ± 3.3
same,coronary flow % changing,"[1]; 1 μM, 10 minutes",16.6%
same,coronary flow,"[1]; 1 μM, 20 minutes of treatment",39.0 ± 3.0
same,coronary flow % changing,"[1]; 1 μM, 20 minutes",13.7%
same,coronary flow,"[1]; 1 μM, 30 minutes of treatment",37.5 ± 2.4
same,coronary flow % changing,"[1]; 1 μM, 30 minutes",9.3%
same,coronary flow,"[1]; 3 μM, 10 minutes of treatment",37.3 ± 2.3
same,coronary flow % changing,"[1]; 3 μM, 10 minutes",24.3%
same,coronary flow,"[1]; 3 μM, 20 minutes of treatment",37.5 ± 1.7
same,coronary flow % changing,"[1]; 3 μM, 20 minutes",25.0%
same,coronary flow,"[1]; 3 μM, 30 minutes of treatment",38.8 ± 1.3
same,coronary flow % changing,"[1]; 3 μM, 30 minutes",26.0%
same,coronary flow,"[1]; 10 μM, 10 minutes of treatment",45.8 ± 2.5
same,coronary flow % changing,"[1]; 10 μM, 10 minutes",63.6%
same,coronary flow,"[1]; 10 μM, 20 minutes of treatment",48.3 ± 4.8
same,coronary flow % changing,"[1]; 10 μM, 20 minutes",72.5%
same,coronary flow,"[1]; 10 μM, 30 minutes of treatment",49.0 ± 4.8
same,coronary flow % changing,"[1]; 10 μM, 30 minutes",75.0%
same,effect on coronary flow (in words),"[1]; 1, 3 and 10 μM, 4-4 hearts",positive effect
same,Analgesic effect in % after p.o. treatment,[2]; 1 hour,57.8%
same,Analgesic effect in % after p.o. treatment,[2]; 2 hours,63.9%
same,Analgesic effect in % after p.o. treatment,[2]; 3 hours,42.0%
same,IC50,[3],101 ± 12.5 µM
